Test results: ChEMBL document CHEMBL1136748, “A novel N-terminal cyclic dynorphin A analogue cyclo(N,5)[Trp(3),Trp(4),Glu(5)] dynorphin A-(1-11)NH(2) that lacks the basic N-terminus” (J Med Chem, 2003)
Where a SMILES comes first, the peptide text is derived from it. Bridges are numbered along the chain shown (N, C = ends). [ ]: non-standard residue; d: D form.

What was measured:
Format in all cases: cell-based
[1] = biological target: Kappa-type opioid receptor (Rattus norvegicus) (UniProt P34975); experiment: Tested for maximum percentage inhibition against cloned rat Opioid receptor kappa 1 stably expressed in CHO cells by adenylyl cyclase assay
[2] = biological target: Mu-type opioid receptor (Homo sapiens, UniProt P35372); experiment: Binding affinity towards Opioid receptor mu 1 using [3H]DAMGO as radioligand in Chinese hamster ovary cells expressing cloned opioid receptors
[3] = biological target: Kappa-type opioid receptor (Cavia porcellus, UniProt P41144); experiment: Binding affinity towards Opioid receptor kappa 1 using [3H]diprenorphine as radioligand in Chinese hamster ovary cells expressing cloned opioid receptors
[4] = biological target: Delta-type opioid receptor (Rattus norvegicus, UniProt P33533); experiment: Binding affinity towards Opioid receptor delta 1 using [3H]DPDPE as radioligand in Chinese hamster ovary cells expressing cloned opioid receptors
Delta-type opioid receptor, sequence (P33533 whole entry): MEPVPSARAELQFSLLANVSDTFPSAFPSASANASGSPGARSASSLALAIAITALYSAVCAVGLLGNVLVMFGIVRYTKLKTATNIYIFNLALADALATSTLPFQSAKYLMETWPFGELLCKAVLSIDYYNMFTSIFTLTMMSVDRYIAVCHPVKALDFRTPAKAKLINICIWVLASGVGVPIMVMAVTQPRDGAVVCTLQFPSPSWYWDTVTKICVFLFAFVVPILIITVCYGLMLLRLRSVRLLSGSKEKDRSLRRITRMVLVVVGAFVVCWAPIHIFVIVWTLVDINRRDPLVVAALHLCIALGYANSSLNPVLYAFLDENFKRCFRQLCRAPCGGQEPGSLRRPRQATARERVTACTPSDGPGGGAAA

Kappa-type opioid receptor, sequence (P41144 whole entry): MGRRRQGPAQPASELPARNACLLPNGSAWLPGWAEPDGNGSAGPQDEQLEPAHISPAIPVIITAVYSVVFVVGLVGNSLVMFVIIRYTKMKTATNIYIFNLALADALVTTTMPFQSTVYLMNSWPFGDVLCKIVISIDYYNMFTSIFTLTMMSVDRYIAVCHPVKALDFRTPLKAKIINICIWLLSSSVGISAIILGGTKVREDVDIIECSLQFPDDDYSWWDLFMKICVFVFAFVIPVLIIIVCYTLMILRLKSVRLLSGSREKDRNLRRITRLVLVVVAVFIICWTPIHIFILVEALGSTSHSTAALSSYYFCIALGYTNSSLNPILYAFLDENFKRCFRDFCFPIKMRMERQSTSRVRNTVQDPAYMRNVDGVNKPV
Kappa-type opioid receptor (Rattus norvegicus), sequence (P34975 whole entry): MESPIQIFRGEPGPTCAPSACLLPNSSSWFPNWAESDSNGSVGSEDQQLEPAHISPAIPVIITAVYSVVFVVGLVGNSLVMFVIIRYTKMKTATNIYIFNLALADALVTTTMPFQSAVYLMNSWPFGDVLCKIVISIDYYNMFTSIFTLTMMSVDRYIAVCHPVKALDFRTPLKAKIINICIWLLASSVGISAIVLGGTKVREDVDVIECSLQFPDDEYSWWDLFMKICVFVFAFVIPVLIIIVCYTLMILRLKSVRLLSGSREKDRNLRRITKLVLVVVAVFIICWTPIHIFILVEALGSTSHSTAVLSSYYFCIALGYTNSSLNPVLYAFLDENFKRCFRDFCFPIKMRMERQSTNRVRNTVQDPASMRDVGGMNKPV
Mu-type opioid receptor, sequence (P35372 whole entry): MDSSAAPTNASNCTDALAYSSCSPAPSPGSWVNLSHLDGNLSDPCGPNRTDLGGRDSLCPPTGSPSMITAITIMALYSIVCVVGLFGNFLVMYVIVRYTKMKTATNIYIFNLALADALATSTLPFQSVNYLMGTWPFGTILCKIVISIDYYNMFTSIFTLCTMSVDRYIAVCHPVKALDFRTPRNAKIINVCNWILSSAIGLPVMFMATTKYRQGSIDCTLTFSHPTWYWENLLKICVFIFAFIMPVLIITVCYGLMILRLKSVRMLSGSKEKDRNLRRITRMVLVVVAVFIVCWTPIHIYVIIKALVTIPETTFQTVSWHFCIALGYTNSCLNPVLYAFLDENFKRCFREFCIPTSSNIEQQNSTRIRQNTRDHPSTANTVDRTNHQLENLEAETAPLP

Compound | inhibition [1] [%] | Ki [2] [nM] | Ki [3] [nM] | Ki [4] [nM]
CC[C@H](C)[C@H](NC(=O)[C@H](CCCN=C(N)N)NC(=O)[C@H](CCCN=C(N)N)NC(=O)[C@@H]1CCC(=O)N[C@@H](Cc2ccc(O)cc2)C(=O)NCC(=O)N[C@@H](Cc2c[nH]c3ccccc23)C(=O)N[C@@H](Cc2c[nH]c3ccccc23)C(=O)N1)C(=O)N[C@@H](CCCN=C(N)N)C(=O)N1CCC[C@@H]1C(=O)N[C@@H](CCCCN)C(=O)O | 8 | – | – | –
CC[C@H](C)[C@H](NC(=O)[C@H](CCCNC(=N)N)NC(=O)[C@H](CCCNC(=N)N)NC(=O)[C@@H]1CCC(=O)N[C@@H](Cc2ccc(O)cc2)C(=O)NCC(=O)N[C@@H](Cc2c[nH]c3ccccc23)C(=O)N[C@@H](Cc2c[nH]c3ccccc23)C(=O)N1)C(=O)N[C@@H](CCCNC(=N)N)C(=O)N1CCC[C@H]1C(=O)N[C@@H](CCCCN)C(N)=O (YGWWERRIRPK-NH2; lactam N-5) | – | 331 | 26.8 | > 8900
CC(=O)N[C@@H](Cc1ccc(O)cc1)C(=O)NCC(=O)N[C@@H](Cc1c[nH]c2ccccc12)C(=O)N[C@@H](Cc1c[nH]c2ccccc12)C(=O)N[C@@H](CC(C)C)C(=O)N[C@@H](CCCN=C(N)N)C(=O)N[C@@H](CCCN=C(N)N)C(=O)N[C@H](C)C(=O)N[C@@H](CCCN=C(N)N)C(=O)N1CCC[C@H]1C(=O)N[C@@H](CCCCN)C(N)=O [[GLY2]VENORPHIN] | – | 339 | 8.4 | > 10000
CC(=O)N[C@@H](Cc1ccc(O)cc1)C(=O)NCC(=O)N[C@@H](Cc1c[nH]c2ccccc12)C(=O)N[C@@H](Cc1c[nH]c2ccccc12)C(=O)N[C@@H](CC(C)C)C(=O)N[C@@H](CCCN=C(N)N)C(=O)N[C@@H](CCCN=C(N)N)C(=O)N[C@@H](C)C(=O)N[C@@H](CCCN=C(N)N)C(=O)N1CCC[C@H]1C(=O)N[C@@H](CCCCN)C(N)=O | 15 | – | – | –
CC(=O)N[C@@H](Cc1ccc(O)cc1)C(=O)N[C@@H](CCCCN)C(=O)N[C@@H](Cc1c[nH]c2ccccc12)C(=O)N[C@@H](Cc1c[nH]c2ccccc12)C(=O)N[C@@H](CC(C)C)C(=O)N[C@@H](CCCN=C(N)N)C(=O)N[C@@H](CCCN=C(N)N)C(=O)N[C@H](C)C(=O)N[C@@H](CCCN=C(N)N)C(=O)N1CCC[C@H]1C(=O)N[C@@H](CCCCN)C(N)=O [VENORPHIN] (Ac-YKWWLRR[dA]RPK-NH2) | – | – | 19.8 | 5320
Ac-YKWWLRRARPK-NH2 | 28 | – | – | –
